Source: PMC6213047, “Design of Antibacterial Agents: Alkyl Dihydroxybenzoates against Xanthomonas citri subsp. citri” (International Journal of Molecular Sciences, 2018)
“Also recorded” adds a separate entry of the source. Like-named read-outs stand apart in the source and are kept apart here.

Legend:
[1] = Partition coefficient log Po/w by HPLC (OECD 117); type: physicochemical; details: HPLC method, OECD 117, methanol:water 3:1
Protocol: The analyses were performed with the use of an isocratic flow in methanol: water (3:1) at 1.0 mL min^−1. We injected 20.0 μL and analyses were performed at 254 nm. We used as reference compounds thiourea, phenol, acetophenone, benzoic acid, benzene, toluene, biphenyl, fluoranthene and triphenylamine in order to construct the curve log K × log Po/w. The lipophilicity of alkyl dihydroxybenzoates was determined from their retention times and interpolation in linearity curve log K × log Po/w. We performed the analyses in duplicate.

[2] = system: VERO (monkey kidney epithelial cell line); assay: Cytotoxicity MTT assay, VERO; type: cell-based
Protocol: (§1) This test is based on the reduction of 3-(4,5-dimethyl-2-thiazolyl)-2,5-diphenyl-2-tetrazole bromide by viable cells, with formation of violet insoluble formazan crystals. Five cell lines were used in order to evaluate the cytotoxic effect of the compounds as a whole.
(§2) The cytotoxicity of compounds 4, 16, 28 and copper oxychloride was determined by MTT assay. The cell lines used were HaCaT (human keratinocyte cell line—CLS 300493), Huh-7.5 (human hepatoma cell line—ATCC® PTA-8561), MRC-5 (human lung fibroblast cell line—ATCC CCL-171), VERO (monkey kidney epithelial cell line—ATCC® CCL81) and ACHN (human renal adenocarcinoma cell line—ATCC® CRL1611). The cells were cultured in appropriate medium recommended by the American Type Culture Collection.
(§3) The assay was performed with the concentration of 10^4 cells for both cell lines, distributed in 96-well plates and incubated at 37 °C in a 5% CO2 controlled atmosphere oven for 24 h. After the incubation period, the cells were treated with the compounds with a range of 1.56–200 μmol L^−1 and incubated for 24 h. The supernatant was removed, then 100 μL of 3-(4,5-dimethyl-2-thiazolyl)-2,5-diphenyl-2H-tetrazolium (MTT) salt at 1 mg mL^−1 diluted in DMEM medium (Gibco Life Technologies, Gaithersburg, MD, USA) was added and incubated for 30 min. Subsequently, the MTT was removed, then 100 μL of DMSO under agitation for 5 min at 60 rpm was added. The plates were read at 570 nm in a FLUOstar Omega/BMG LABTECH plate reader, Offenburg, BW, DE. We carried out the experiments in triplicate and three independent events for statistical analysis (GraphPad Software, San Diego, CA, USA). The MTT assay is based on the tetrazolium salt (yellow-colored) reduction to formazan (purple-colored) by metabolically active cells.

[3] = system: ACHN (human renal adenocarcinoma cell line); assay: Cytotoxicity MTT assay, ACHN; type: cell-based
Protocol: as §1, §2, §3

[4] = system: Xanthomonas citri subsp. citri; assay: Growth curve of Xcc (OD 600 nm); type: cell-based; details: MIC and ½ MIC, 72 h
Protocol: According to the growth curves of the positive control (PC) and vehicle control (DMSO), it was observed that Xcc reaches the maximum growth phase in a period of 15 h. […] The early growth inhibition (lag phase), which happens in the first hours of contact (period of the first cellular divisions) can be a dynamic process. […] This can be explained because the compounds have bacteriostatic action; that is, as the time passes, the cells become able to recover and restart doubling. Another important finding is that the lag phase consists in the cell adaptation to the new medium conditions and the bacterial population is smaller in relation to the exponential phase facilitates the action of the compounds in the first hours (Figure 1).
An isolated colony of Xanthomonas citri subsp. citri was inoculated in NYG medium for 12 h at 29 °C. After this, the optical density (OD 600 nm) was measured and adjusted to ~0.1. […] Optical density reading was measured on a Synergy H1-BioTek plate reader every 30 min for 72 h. The growth curves were plotted with GraphPad Prism software. At the same time, the degradation assay was performed, solubilizing the compounds in DMSO, which were later incorporated in NYG medium. Later, we scanned the compounds to measure the absorbance values from 210 to 700 nm, and the maximum lambda value of each compound was selected after scanning. After that, punctual readings were carried out every 30 min for 72 h.

FtsZ from Xcc = assay: Inhibition of GTPase activity, continuous substrate regeneration assay; type: biochemical, Xanthomonas citri subsp. citri; details: compounds at MIC values, Xcc-FtsZ 5 μM, 400 μM GTP
Protocol: The cell division process is mediated by the formation of the Z ring, coordinated by GTP hydrolysis activity of FtsZ [33, 34, 35].
The evaluation of the inhibition of GTPase activity was measured by the characterization of the FtsZ from Xcc. This methodology is known as continuous assay of substrate regeneration and consists of the hydrolysis of guanosine triphosphate (GTP) in guanosine diphosphate (GDP) and inorganic phosphate. The GTP is regenerated by the enzyme pyruvate kinase which, in turn, converts the phosphoenol pyruvate (PEP) to pyruvate. The pyruvate produced by this reaction is reduced to lactate by lactate dehydrogenase, using NADH [64].
Reagent stocks were dispersed in Tris 50 buffer (1:1 tris:KCl at pH 7.9). We also prepared two mixtures: Mixture 1—magnesium chloride (MgCl2), pyruvate kinase/lactate dehydrogenase, phosphoenol-pyruvate, NADH and GTP, adding or not the test compounds to MIC values; and mixture 2—Xcc-FtsZ. The assay was performed in a 96-well plate, 75 μL of mixture 1 was pipetted into a well and incubated for 5 min at 30 °C; then 75 μL of mixture 2 was added and the readings started. A Biotek Synergy MX plate reader was used. The readings were performed every 5 s, at the wavelength of 340 nm at 30 °C, under constant stirring.
The total volume of 150 μL presented the following concentrations: 5 mM MgCl2; pyruvate kinase/lactate dehydrogenase 20 U mL^−1; 2 mM phosphoenol-pyruvate; 1 mM NADH; 400 μM GTP; Xcc-FtsZ 5 μM.

[5] = Homo sapiens, ACHN, 24 h, read-out: IC50 ACHN, MTT, 24 h treatment
[6] = MTT, 24 h treatment, read-out: IC50 ACHN
[7] = Primates, Vero, 24 h, MTT, 24 h treatment, read-out: IC50 VERO

Compound | chromatographic logP [1] | IC50 ([2]; MTT, 24 h treatment, read-out: IC50 VERO) | IC50 ([2]; Primates, Vero, 24 h, read-out: IC50 VERO, MTT, 24 h treatment) | IC50 [3, 5] | IC50 [3, 6] | effect on Xcc growth curve [4] | effect on GTPase activity of FtsZ (FtsZ from Xcc) | IC50 [2, 7]
CCCCCCCOC(=O)c1ccc(O)cc1O [Compound 4] | 5.1 | 111 ± 8.34 µM | > 100 µM | > 100 µM | 153 ± 7.07 µM | delay in the exponential phase | inhibition of FtsZ GTPase activity; also recorded: decay in the GTPase activity of FtsZ | 
CCCCCCCOC(=O)c1ccc(O)c(O)c1 [Compound 28] | 4.3 |  |  | > 100 µM | 114 ± 9.97 µM | delay in the exponential phase | inhibition of FtsZ GTPase activity; also recorded: decay in the GTPase activity of FtsZ | 92.3 ± 9.34 µM
CCCCCCCOC(=O)c1cc(O)ccc1O [Compound 16] | 5 |  |  | > 100 µM | 140 ± 7.56 µM | delay in the exponential phase | inhibition of FtsZ GTPase activity; also recorded: decay in the GTPase activity of FtsZ | 93.5 ± 1.93 µM
